According to publication PMC7854658, “Structural basis for ligand recognition of the neuropeptide Y Y2 receptor” (Nature Communications, 2021):
Residue numbers refer to the chain shown, from its start. Where “and” joins values, the source holds several entries; their conditions need not be identical. Equal values may be shown once.

Key:
Experiment in all cases: NPY-induced IP accumulation (IP-One), mutant
Format in all cases: cell-based
[1] = target: T1, Y2R mutant Y110^2.64A (Homo sapiens, UniProt P49146, Y110A); conditions: 1 μM antagonist, source data Fig. 3
T1 construct: expressed in transfected cells; host or cells: HEK293
T1 sequence (P49146 whole entry Y110A): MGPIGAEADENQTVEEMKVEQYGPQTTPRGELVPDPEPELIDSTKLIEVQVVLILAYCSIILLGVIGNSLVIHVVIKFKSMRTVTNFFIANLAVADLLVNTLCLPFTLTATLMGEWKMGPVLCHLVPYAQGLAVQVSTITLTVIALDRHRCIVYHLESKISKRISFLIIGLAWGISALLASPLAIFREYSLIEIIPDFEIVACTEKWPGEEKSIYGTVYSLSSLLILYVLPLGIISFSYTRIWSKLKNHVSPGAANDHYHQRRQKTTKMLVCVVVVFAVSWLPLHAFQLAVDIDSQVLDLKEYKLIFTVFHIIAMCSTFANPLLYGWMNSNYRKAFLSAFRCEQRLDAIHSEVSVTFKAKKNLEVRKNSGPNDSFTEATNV

[2] = target: T2, Y2R mutant S223^5.42A (Homo sapiens, UniProt P49146, S223A); conditions: 1 μM antagonist, source data Fig. 3
T2 construct: expressed in transfected cells; host or cells: HEK293
T2 sequence (P49146 whole entry S223A): as the sequence (P49146 whole entry Y110A) above, with A110Y, S223A counted along it

[3] = target: T3, Y2R mutant F307^7.35A (Homo sapiens, UniProt P49146, F307A)
T3 construct: expressed in transfected cells; host or cells: HEK293
T3 sequence (P49146 1-381 F307A): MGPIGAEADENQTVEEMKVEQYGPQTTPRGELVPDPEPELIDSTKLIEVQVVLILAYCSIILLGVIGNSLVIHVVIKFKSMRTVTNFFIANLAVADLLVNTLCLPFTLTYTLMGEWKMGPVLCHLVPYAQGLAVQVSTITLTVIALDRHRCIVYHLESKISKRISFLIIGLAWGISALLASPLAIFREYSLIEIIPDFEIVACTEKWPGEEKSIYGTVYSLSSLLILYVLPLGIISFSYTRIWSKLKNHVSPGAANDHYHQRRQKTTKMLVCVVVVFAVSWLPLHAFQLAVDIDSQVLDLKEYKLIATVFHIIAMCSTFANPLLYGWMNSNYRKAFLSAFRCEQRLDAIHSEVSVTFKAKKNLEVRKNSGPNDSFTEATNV

[4] = target: T4, Y2R mutant W281^6.48T (Homo sapiens, UniProt P49146, W281T)
T4 construct: expressed in transfected cells; host or cells: HEK293
T4 sequence (P49146 1-381 W281T): T3 sequence (P49146 1-381 F307A) with W281T, A307F

[5] = target: T5, Y2R mutant H285^6.52T (Homo sapiens, UniProt P49146, H285T)
T5 construct: expressed in transfected cells; host or cells: HEK293
T5 sequence (P49146 1-381 H285T): T3 sequence (P49146 1-381 F307A) with H285T, A307F

[6] = target: T6, Y2R mutant L224^5.43A (Homo sapiens, UniProt P49146, L224A); conditions: 1 μM antagonist, source data Fig. 3
T6 construct: expressed in transfected cells; host or cells: HEK293
T6 sequence (P49146 whole entry L224A): as the sequence (P49146 whole entry Y110A) above, with A110Y, L224A counted along it

[7] = target: T7, Y2R mutant L227^5.46A (Homo sapiens, UniProt P49146, L227A)
T7 construct: expressed in transfected cells; host or cells: HEK293
T7 sequence (P49146 1-381 L227A): T3 sequence (P49146 1-381 F307A) with L227A, A307F

[8] = 1 μM antagonist, source data Fig. 3
[9] = EC50(NPY + 1 μM antagonist)/EC50(NPY)
[10] = EC50 ratio (WT)/EC50 ratio (mutant)

N=C(N)NCCC[C@H](NC(=O)CC1(CC(=O)N2CCN(C3c4ccccc4NC(=O)c4ccccc43)CC2)CCCC1)C(=O)NCCn1c(=O)n(-c2ccccc2)n(-c2ccccc2)c1=O (stereo partly drawn) [BIIE0246]
Average EC50 ratio [1]: 47.6 | EC50 ratio (individual experiments) [1]: 25.1 and 70.1 | Average EC50 ratio [2]: 168.7 | EC50 ratio (individual experiments) [2]: 275.8 and 61.6 | Average EC50 ratio [3, 8]: 89.4 | EC50 ratio (individual experiments) [3, 8]: 68.0 and 110.9 | EC50 ratio [3, 9]: 68 and 111 | Ratio change (fold) [3, 10]: 2 fold and 1.4 fold | Average EC50 ratio [4, 8]: 2.6 | EC50 ratio (individual experiments) [4, 8]: 3.3 and 2.0 | EC50 ratio [4, 9]: 3 and 2 | Ratio change (fold) [4, 10]: 48 fold and 80 fold | Average EC50 ratio [5, 8]: 2.7 | EC50 ratio (individual experiments) [5, 8]: 3.5 and 1.9 | Ratio change (fold) [5, 10]: 45 fold and 84 fold | Average EC50 ratio [6]: 738.6 | EC50 ratio (individual experiments) [6]: 1348.6 and 128.7 | Average EC50 ratio [7, 8]: 27.7 | EC50 ratio (individual experiments) [7, 8]: 31.4 and 24.0 | EC50 ratio [7, 9]: 31 and 24 | Ratio change (fold) [7, 10]: 5 fold and 7 fold
